The target in series [1] is T1, P-glycoprotein (P-gp, ABCB1) (Homo sapiens, UniProt P08183).
The target of series [2] is T1, P-glycoprotein (P-gp, ABCB1). Put plainly: vanadate-sensitive ATPase stimulation in membrane vesicles; also inhibits [3H]-paclitaxel efflux in KB-C2 cells. The class given is biochemical. More on the design: ABCB1 in membrane vesicles of High Five insect cells.

The values that follow come from paper PMC6494935, “Glesatinib, a c-MET/SMO Dual Inhibitor, Antagonizes P-glycoprotein Mediated Multidrug Resistance in Cancer Cells” (Frontiers in Oncology, 2019).

Usually EC50 stands for the concentration that produces a half-maximal response. High values mean a less potent agent, low ones a more potent agent.

T1 sequence (P08183 whole entry): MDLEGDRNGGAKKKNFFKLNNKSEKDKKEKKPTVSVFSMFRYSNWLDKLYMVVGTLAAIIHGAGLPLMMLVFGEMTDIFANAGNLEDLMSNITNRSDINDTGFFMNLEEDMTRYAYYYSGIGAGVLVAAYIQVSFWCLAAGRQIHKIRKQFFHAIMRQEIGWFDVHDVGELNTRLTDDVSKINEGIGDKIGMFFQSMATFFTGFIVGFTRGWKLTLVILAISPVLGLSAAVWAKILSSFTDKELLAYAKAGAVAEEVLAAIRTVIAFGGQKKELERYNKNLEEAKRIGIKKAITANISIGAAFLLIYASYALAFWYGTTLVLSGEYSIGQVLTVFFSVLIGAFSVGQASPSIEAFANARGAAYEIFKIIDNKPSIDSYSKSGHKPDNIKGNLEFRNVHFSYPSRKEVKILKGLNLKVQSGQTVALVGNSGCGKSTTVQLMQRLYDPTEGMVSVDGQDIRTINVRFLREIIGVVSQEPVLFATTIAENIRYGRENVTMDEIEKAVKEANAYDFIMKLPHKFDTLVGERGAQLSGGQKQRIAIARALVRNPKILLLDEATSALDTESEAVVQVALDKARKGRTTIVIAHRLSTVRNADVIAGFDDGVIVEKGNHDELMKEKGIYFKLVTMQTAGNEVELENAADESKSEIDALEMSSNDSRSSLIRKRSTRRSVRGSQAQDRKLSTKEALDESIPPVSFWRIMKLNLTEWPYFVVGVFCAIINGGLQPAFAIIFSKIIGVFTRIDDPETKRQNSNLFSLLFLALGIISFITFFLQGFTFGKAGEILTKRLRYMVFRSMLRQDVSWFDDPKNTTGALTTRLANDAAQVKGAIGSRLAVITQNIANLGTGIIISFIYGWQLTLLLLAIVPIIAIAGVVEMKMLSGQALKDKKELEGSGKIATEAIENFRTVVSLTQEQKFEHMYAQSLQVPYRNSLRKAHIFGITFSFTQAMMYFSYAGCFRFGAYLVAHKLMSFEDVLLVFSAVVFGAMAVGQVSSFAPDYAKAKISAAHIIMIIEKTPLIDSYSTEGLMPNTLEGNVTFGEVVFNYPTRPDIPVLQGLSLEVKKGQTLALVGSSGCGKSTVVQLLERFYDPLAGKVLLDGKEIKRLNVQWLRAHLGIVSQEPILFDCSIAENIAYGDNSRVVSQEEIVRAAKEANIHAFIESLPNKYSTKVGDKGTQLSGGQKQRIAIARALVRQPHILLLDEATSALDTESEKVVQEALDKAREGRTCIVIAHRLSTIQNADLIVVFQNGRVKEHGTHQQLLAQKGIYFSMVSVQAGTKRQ

As to `CC(=O)O[C@H]1C(=O)[C@@]2(C)[C@H]([C@H](OC(=O)c3ccccc3)[C@]3(O)C[C@H](OC(=O)[C@H](O)[C@@H](NC(=O)c4ccccc4)c4ccccc4)C(C)=C1C3(C)C)[C@]1(OC(C)=O)CO[C@@H]1C[C@@H]2O` [paclitaxel], the “[3H]-paclitaxel accumulation and efflux in KB-C2 vs parental KB-3-1 cells” value in series [1] was “While in P-gp overexpressing KB-C-2 cells, [^3H]-paclitaxel accumulation decreased significantly as shown in Figures 4A,C”.
In the case of `COCCNCc1ccc(-c2cc3nccc(Oc4ccc(NC(=S)NC(=O)Cc5ccc(F)cc5)cc4F)c3s2)nc1` [glesatinib], in series [2], the half-maximal effective concentration (EC50) came to 3.2 µM. In other words, the single-digit micromolar range.
